{
  "source": "patent EP1984014B1",
  "about": "“USE OF TPO PEPTIDE COMPOUNDS AND PHARMACEUTICAL COMPOSITIONS IN THE TREATMENT OF ANEMIA” (Janssen Pharmaceutica NV, priority 2006, dated 2007)",
  "key": {"[1]": {"tested_on": "mice treated with carboplatin", "test": "Example 3: dosing 1 hour, 1 day or 4 days after carboplatin, anemia in mice", "format": "in vivo, BALB/c mouse", "description": "(§1) The effects of PEGylated TPO Compound No. 1 on mice treated with carboplatin were observed. For all examples herein, a 10 mg/ml stock solution of PEGylated TPO Compound No. 1 was prepared in sterile saline. For mixing, the preparation was placed on a gyratory shaker for 15min. at 200 rpm. This method was used to dissolve PEGylated TPO Compound No. 1 without foaming. The stock was filtered using a GV Millex (0.22um) filter. Dosing solutions were then prepared from this stock using sterile saline. The stock and dosing solutions were prepared fresh on the day of use.\nThe effect of PEGylated TPO Compound No. 1 on the duration and severity of anemia following dosing regimens in which PEGylated TPO Compound No. 1 is administered at various times following the carboplatin treatment was observed. For this study, an amount of PEGylated TPO Compound No. 1 was administered to mice, one (1) hour, one (1) day or four (4) days following a carboplatin dose.\nThe groups of mice were treated with either carboplatin or vehicle (Phosphate Buffered Saline, PBS) by ip administration on Days -1 and 0 as delineated below. The optimal dose of carboplatin used to induce thrombocytopenia in the BALB/c mouse strain was previously determined to be a fractionated total dose of 120mg/kg given as two consecutive daily injections (i.e., 2x60mg/kg). One hour (Day 0), one day (Day 1) or four days (Day 4) following the second dose of carboplatin, groups of mice were treated with PEGylated TPO Compound No. 1 (300ug/kg) or vehicle (sterile saline, SS, preservative-free 0.9% sodium chloride) by IV (bolus) injection as delineated in Table 3. The dose was administered on a per-weight basis (100ul/10g body weight).\n(§2) On Days 6, 8, 10 & 12, five mice in each test group were weighed and then euthanised using CO2-asphyxiation and exsanguinations via cardiac puncture. The blood samples were transferred to separate EDTA (lavender-top) microcontainers for hematological evaluation. Groups of control mice (5) were processed on Days 6 & 12. The data are presented graphically as group means + SEM."}, "[2]": {"tested_on": "mice treated with carboplatin", "test": "Example 1: dose response of PEGylated TPO Compound No. 1 given one day after carboplatin, anemia in mice", "format": "in vivo, BALB/c mouse", "description": "as §1\nThe effect of PEGylated TPO Compound No. 1 on the duration and severity of anemia following treatment of mice with carboplatin as determined by changes in hemoglobin levels, red blood cell count and hematocrit, was observed. For this study, increasing amounts of PEGylated TPO Compound No. 1 were administered to mice one day following a carboplatin dose to characterize a possible dose-dependent effect on various red blood cell parameters.\nThe groups of mice were treated with either carboplatin or vehicle (Phosphate Buffered Saline, PBS) by intraperitoneal administration on Days -2 and -1 as delineated below. The optimal dose of carboplatin used to induce thrombocytopenia in the BALB/c mouse strain was previously determined to be a fractionated total dose of 120mg/kg given as two consecutive daily injections (i.e., 2x60mg/kg). One day following the second dose of carboplatin, groups of mice were treated with PEGylated TPO Compound No. 1 or vehicle (sterile saline, SS, preservative-free 0.9% sodium chloride) by IV (bolus) injection as delineated in Table 1. The dose was administered on a per-weight basis (100ul/10g body weight).\nas §2, with “5, 7, 9 and 11,” for “6, 8, 10 & 12,”, “hematologic” for “hematological”, “5 and 11.” for “6 & 12.”, “+SEM.” for “+ SEM.”"}, "[3]": {"biological_target": "T1, human TPO receptor, c-mpl (hTPOr) (Homo sapiens, UniProt P40238)", "T1 construct": "expressed in transfected cells", "T1 sequence (P40238 26-635)": "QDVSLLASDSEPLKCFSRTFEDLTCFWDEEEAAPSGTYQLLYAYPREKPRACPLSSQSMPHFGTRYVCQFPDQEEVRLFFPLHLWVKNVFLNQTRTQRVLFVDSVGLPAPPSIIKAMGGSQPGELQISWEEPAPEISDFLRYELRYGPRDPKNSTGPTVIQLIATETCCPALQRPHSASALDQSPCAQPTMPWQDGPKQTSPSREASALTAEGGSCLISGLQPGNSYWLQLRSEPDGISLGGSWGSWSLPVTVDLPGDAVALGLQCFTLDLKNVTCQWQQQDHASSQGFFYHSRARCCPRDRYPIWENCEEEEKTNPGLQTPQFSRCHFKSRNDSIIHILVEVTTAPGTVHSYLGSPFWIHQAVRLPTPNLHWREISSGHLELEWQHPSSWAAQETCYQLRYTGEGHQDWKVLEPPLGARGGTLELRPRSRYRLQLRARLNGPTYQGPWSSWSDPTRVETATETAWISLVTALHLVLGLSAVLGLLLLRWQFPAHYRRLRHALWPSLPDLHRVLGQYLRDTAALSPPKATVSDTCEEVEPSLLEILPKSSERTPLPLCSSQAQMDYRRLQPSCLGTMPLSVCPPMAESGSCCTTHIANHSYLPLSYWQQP", "test": "Example 7: Baf/3 hTPOr fos/lux luciferase reporter assay (relative luminescent units)", "format": "cell-based", "description": "The activity of the peptide compounds can be determined using standard relative luminescent units assay techniques. The assay employs, e.g., murine cells engineered to stably express the human TPO receptor and a luciferase reporter construct driven by the fos promoter. The assay may be performed as follows: Serum deprived Baf/3 hTPOr fos/lux cells expressing the human TPO receptor, c-mpl (hTPOr), and a luciferase reporter construct are exposed to increasing concentrations of either rhTPO or peptide compound for approximately 18 hours. Cells are then incubated in a medium containing a luciferase substrate and the luminescence of the cells is measured using a luminometer."}},
  "data": [
    {"substance": "Methoxypolyethyleneglycol20000-propionyl-L-Isoleucyl-L-Glutamyl-Glycyl-L-Prolyl-L-Threonyl-L-Leucyl-L-Arginyl-L-Glutaminyl-L-2-Naphthylalanyl-L-Leucyl-L-Alanyl-L-Alanyl-L-Arginyl-Sarcosyl-Ne-(methoxypolyethyleneglycol20000-propionyl-L-Isoleucyl-L-Glutamyl-Glycyl-L-Prolyl-L-Threonyl-L-Leucyl-L-Arginyl-L-Glutaminyl-L-2-Naphthylalanyl-L-Leucyl-L-Alanyl-L-Alanyl-L-Arginyl-Sarcosyl-)-Lysinamide [PEGylated TPO Compound No. 1]", "values": [
      {"measurement": "time of dosing after chemotherapy at which prevention of carboplatin-induced anemia is observed", "setting": "[1]; 300ug/kg iv", "result": "≤ 24", "unit": "h"},
      {"measurement": "decreases in hemoglobin levels, RBC counts and hematocrits caused by carboplatin", "setting": "[1]; 300ug/kg iv on Day 0 (1 hour after carboplatin treatment)", "result": "prevented"},
      {"measurement": "decreases in hemoglobin levels, RBC counts and hematocrits caused by carboplatin", "setting": "[1]; 300ug/kg iv on Day 1", "result": "prevented"},
      {"measurement": "carboplatin-induced changes in erythrocyte parameters", "setting": "[1]; 300ug/kg iv on Day 4", "result": "failed to affect"},
      {"measurement": "onset, frequency or severity of signs (hunched, flaccid)", "setting": "[1]; 300ug/kg iv, no detailed analysis", "result": "did not appear to have a dramatic effect"},
      {"measurement": "weight loss associated with carboplatin treatment", "setting": "[1]; administration on Day 0, Day 1 or Day 4, no statistical analysis", "result": "did not appear to affect the weight loss"},
      {"measurement": "recovery of the lost body weight", "setting": "[2]; all doses tested, 11-Day study period", "result": "enhanced the recovery of the lost body weight"},
      {"measurement": "altered appearance and behavior (hunched, flaccid, soiled anogenital areas)", "setting": "[2]; appeared to be dose-dependent", "result": "decreased the onset, frequency and severity of these signs"},
      {"measurement": "decrease in hemoglobin levels caused by carboplatin", "setting": "[2]; carboplatin 2x60mg/kg ip Days -2 & -1, all doses (300, 1000, 3000ug/kg iv Day 0), by Day 11", "result": "inhibited"},
      {"measurement": "decreases in RBC count and hematocrit associated with carboplatin treatment", "setting": "[2]; carboplatin 2x60mg/kg ip, 300-3000ug/kg iv Day 0, no statistical evaluation", "result": "inhibited"},
      {"measurement": "EC50", "setting": "[3]; Baf/3 cells recombinantly expressing human TPO-R, approximately 18 hours", "result": "~5", "unit": "pM"},
      {"measurement": "activation of TPO-R compared with TPO", "setting": "[3]; at the same concentration as TPO", "result": "stronger activation"},
      {"measurement": "activation of Baf/3 cells recombinantly expressing human TPO-R", "setting": "[3]; increasing concentrations", "result": "dose dependent"}
    ]}
  ]
}
